In paper PMC8347709 (International Journal of Molecular Sciences, 2021):

Test system: not given
Assay: not given
Parameters: method as in PMID 30342565, PMID 2173751
Settings: cited from earlier work
For (−)-Δ9-trans-tetrahydrocannabinol [THC], the LogD7.4 is listed as greater than 7.

Target: CB2
Assay: not given
Parameters: method as in PMID 29921889, PMID 33379862
Settings: Figure 1; cited from earlier work
In the case of CCOCCn1cc(C(=O)NC23CC4CC(CC(C4)C2)C3)c(=O)c2cccc(OCC[18F])c21 [[^18F]RS-122], the Ki is listed as 72 nM. For COc1cccc2c(=O)c(C(=O)NC34CC5CC(CC(C5)C3)C4)cn(CCCOCCC[18F])c12 [[^18F]AH-043], the Ki is given as 6.3 nM. In the case of Cc1s/c(=N\C(=O)C2C(C)(C)C2(C)C)n(CCCC[18F])c1C [[^18F]JHU94620], the Ki is listed as 0.4 nM. For CCCCOc1c(O[11CH3])ccc2cc(C(=O)NC3CCCCC3)c(=O)[nH]c12 [[^11C]NE40], the Ki is listed as 9.6 nM. For CCOC(=O)C(CC)(CC)NC(=O)c1ccc(N2CC(O[11CH3])C2)c(OCC2CC2)n1 [[^11C]RSR-056], the Ki is given as 2.5 nM. For CCCCOc1c(OCC[18F])ccc2cc(C(=O)NC3CCCCC3)c(=O)[nH]c12 [[^18F]1], the Ki is listed as 36 nM. For COc1cccc2c(=O)c(C(=O)NC34CC5CC(CC(C5)C3)C4)cn(CCOCCC[18F])c12 [[^18F]RS-126], the Ki is listed as 1.2 nM. In the case of [11CH3]Oc1ccc2ncc(NCCCc3nc(-c4ccc(F)cc4Cl)no3)cc2c1 [[^11C]MA2], the Ki is given as 87 nM. In the case of [2H]C([2H])([18F])C([2H])([2H])C([2H])([2H])OC(=O)C(CC)(CC)NC(=O)c1ccc(N2CC(OC)C2)c(OCC2CC2)n1 [[^18F]RoSMA-18-d6], the Ki is given as 6 nM. For Cc1s/c(=N\C(=O)C2C(C)(C)C2(C)C)n(CCO[11CH3])c1C [[^11C]A-836339], the Ki is given as 0.7 nM. In the case of Fc1ccc(-c2noc(CCCNc3cnc4ccc(OCC[18F])cc4c3)n2)c(Cl)c1 [[^18F]MA3], the Ki is given as 0.8 nM. In the case of CCCCCn1cc(C(=O)NC23CC4CC(CC(C4)C2)C3)c(=O)c2cccc(O[11CH3])c21 [[^11C]KD2], the Ki is listed as 1.7 nM. For Cc1s/c(=N\C(=O)C2C(C)(C)C2(C)C)n(CCOCC[18F])c1C [[^18F]FC024], the Ki is given as 0.1 nM. In the case of CCC(CC)(NC(=O)c1ccc(N2CC(OC)C2)c(OCC2CC2)n1)C(=O)OCCC[18F] [[^18F]2], the Ki is given as 6 nM. In the case of CCOCCn1cc(C(=O)NC23CC4CC(CC(C4)C2)C3)c(=O)c2cccc(O[11CH3])c21 [[^11C]RS-016], the Ki is listed as 0.7 nM. For COc1cccc2c(=O)c(C(=O)NC34CC5CC(CC(C5)C3)C4)cn(CCOCCCC[18F])c12 [[^18F]AH-040], the Ki is listed as 0.9 nM.

Target: T1, hCB2R (Homo sapiens, UniProt P34972)
T1 sequence (P34972 whole entry): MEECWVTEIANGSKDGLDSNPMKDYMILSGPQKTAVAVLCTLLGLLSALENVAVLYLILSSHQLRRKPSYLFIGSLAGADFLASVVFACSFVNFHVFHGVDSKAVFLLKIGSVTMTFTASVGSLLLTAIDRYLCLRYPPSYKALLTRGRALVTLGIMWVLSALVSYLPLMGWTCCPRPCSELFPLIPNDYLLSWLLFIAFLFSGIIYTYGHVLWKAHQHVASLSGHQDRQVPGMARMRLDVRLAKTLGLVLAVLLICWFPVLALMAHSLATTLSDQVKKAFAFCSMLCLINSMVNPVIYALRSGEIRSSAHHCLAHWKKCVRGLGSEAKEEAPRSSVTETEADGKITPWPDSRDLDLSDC
Assay: not given
Settings: HEK-293 membranes, [3H]CP-55,940; cited from earlier work
In the case of CC1CCC(NC(=O)c2cc3cccnc3n(CCCCF)c2=O)CC1 (stereo not shown) [compound 5, 1-(4-Fluorbutyl)-N-(4-methyl)-2-oxo-1,2-dihydro-1,8-naphthyridine-3-carboxamide], the Ki is given as 1.4 nM.

Same assay, conditions: diastereomeric mixture; published value; cited from earlier work
In the case of CC1CCC(NC(=O)c2cc3cccnc3n(CCCCF)c2=O)CC1 (stereo not shown) [compound 5, 1-(4-Fluorbutyl)-N-(4-methyl)-2-oxo-1,2-dihydro-1,8-naphthyridine-3-carboxamide], the Ki is listed as 1.3 nM.

Target: T1, hCB2R
Assay: competitive radioligand displacement with [3H]WIN55212-2 on hCB2-CHO membrane preparations
Format: binding
Parameters: host or cells: CHO cells, stably transfected
Settings: hCB2-CHO membranes, read-out: Ki(hCB2R)
Source text: In brief, membrane preparations obtained from CHO cell lines stably transfected with either human CB1 (hCB1-CHO; obtained from Euroscreen, Gosselies, Belgium) or human CB2 (hCB2-CHO; obtained from Paul L. Prather, Department of Pharmacology and Toxicology, College of Medicine, University of Arkansas for Medical Sciences, Fayetteville, AR, USA) were used along with [^3H]SR141716A (1554 GBq/mmol; PerkinElmer Life and Analytical Sciences, Rodgau, Germany) and [^3H]WIN55212-2 (6438 GBq/mmol; PerkinElmer Life and Analytical Sciences, Rodgau, Germany), resp., as target-specific radioligands. The incubations were performed in 50 mM TRIS-HCl, pH 7.4, supplemented with 0.1% bovine serum albumin (BSA), 5 mM MgCl2, and 1 mM EDTA for 90 min at room temperature. Various concentrations of test compounds were administered, and the non-specific binding was determined in the presence of 10 μM 56. The values of bound activity were used to determine affinity (Ki) values using non-linear regression analysis (GraphPad Prism 2.01, v9, San Diego, CA, USA) and based on the KD values of [^3H]56 determined by saturation experiments [54].
Human CB2 receptors were expressed in CHO cells, and affinities were determined by competitive radioligand displacement experiments using [^3H]WIN552122. […]
C[C@H]1CC[C@@H](NC(=O)c2cc3cccnc3n(CCCCF)c2=O)CC1 [cis-5] showed a Ki of 6 nM. C[C@H]1CC[C@H](NC(=O)c2cc3cccnc3n(CCCCF)c2=O)CC1 [trans-5] gave a Ki of 52 nM.

Target: T2, CB2R in rat spleen tissue (Rattus norvegicus, UniProt Q9QZN9)
T2 construct: from tissue; host or cells: rat spleen cryosections (female SPRD rat)
T2 sequence (Q9QZN9 1-360): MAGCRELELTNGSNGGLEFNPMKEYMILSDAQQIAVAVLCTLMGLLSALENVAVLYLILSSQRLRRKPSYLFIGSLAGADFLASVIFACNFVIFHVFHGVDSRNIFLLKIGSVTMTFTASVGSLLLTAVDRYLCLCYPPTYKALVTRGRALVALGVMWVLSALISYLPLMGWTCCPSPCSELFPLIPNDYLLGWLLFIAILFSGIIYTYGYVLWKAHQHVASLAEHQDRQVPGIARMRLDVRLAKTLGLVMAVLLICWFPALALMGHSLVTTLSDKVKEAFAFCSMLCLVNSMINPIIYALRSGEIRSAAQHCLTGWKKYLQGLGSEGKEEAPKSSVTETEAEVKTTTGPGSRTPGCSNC
Assay: not given
Parameters: method as in PMID 27713686
Settings: previously reported; cited from earlier work
For Fc1ccc(-c2noc(CCCNc3cnc4ccc(OCC[18F])cc4c3)n2)c(Cl)c1 [[^18F]MA3], the “visualisation of CB2 receptors in rodent spleen tissue” value is listed as “inability to visualise CB2 receptors in rodent spleen tissue”.
